{
  "source": "patent US9744212B2",
  "about": "“Galectin-3C combination therapy for human cancer” (Texas Tech University System, priority 2011, dated 2017)",
  "key": {"HUVEC [1]": {"test_system": "HUVEC", "test": "Vascular endothelial cell viability assay", "assay_type": "cell-based, human", "experimental": "FIGS. 4A and 4B are graphs of the data from the vascular endothelial cell viability assay. […] The graphs show mean values and error bars represent 95% C.I. **=ANOVA Tukey's post test p<O.Ol. n.s.=not significant. […] Viability was measured as described for the U266 cells. […] Results obtained from the HUVEC viability studies that were run in triplicate are depicted in FIGS. 4A-B, and are presented as a percentage of control (untreated) cells.\nEXAMPLE 3 illustrates Gal-3C inhibits proliferation of MM cells. Cell Proliferation (Viability) Assays. Cell proliferation was assessed with a ViaLight Plus Cell Proliferation and Cytotoxicity BioAssay Kit (Lonza, Walkersville, Md., USA) according to the directions of the manufacturer. In brief, myeloma cells were seeded (8,000 per well) in 50 μL of RPMI-1640 with 10% heat-inactivated FBS (growth medium) in 96-well plates. HUVEC cells were seeded (10,000/well) in 50 μl EGM-2 medium in 96-well plates. Gal-3C (2× concentration) in 50 μL of growth medium was added to triplicate wells and the plate kept at the CO2 incubator at 37° C. for 48 hour. For the ViaLight assay, 50 μL of lysis buffer was added to each well, the plate was incubated for 10 minutes, after which 50 μL of cell lysate from each well was transferred to a solid white Lumitrac-200 plate and 50 μL of reconstituted AMR Plus was added. Luminescence was measured with a 1-s integrated setting in a Berthold luminometer after 2 minutes. With Alamar Blue, 10 μL of reagent was added per well and the plate kept in the CO2 incubator for 4 hours. Fluorescence intensity was measured at 590-nm on a Polarstar Galaxy (BMG Labtech, Cary, N.C.) microplate reader. The blank (growth media with 10 μl Alamar Blue) was subtracted from the raw fluorescence to obtain adjusted fluorescence readings. Triplicate data points were analyzed and the data shown are representative of 3 or more studies."}, "HUVEC [2]": {"test_system": "HUVEC", "test": "HUVEC tubule formation assay on Matrigel with U266 conditioned media", "assay_type": "cell-based, human", "details": "20% V/V conditioned medium of U266 treated 48 h with 10 μg/mL Gal-3C, 5 nM Bor or both; 16-hour incubation", "experimental": "HUVEC Tubule Formation Assay. A tubule formation assay was performed in vitro as described (86) to measure angiogenesis. Briefly, growth factor-reduced Matrigel (Becton Dickinson) was allowed to polymerize in the presence of 30 ng/mL recombinant basic fibroblastic growth factor (bFGF; R&D Systems) for 1 hour at 37° C.\nFIG. 5 is an image of the results from the In vitro tubule formation assay having 6 regions. Serum-starved HUVEC were allowed to form tubules on a […]™ surface in the presence of VEGF (positive control), EMB-2 medium alone (negative control), or EBM-2 supplemented with 20% V/V U266 conditioned media (c.m.). […] To evaluate the effect of different treatments on the ability of U266 cells to induce angiogenesis, a […]™-based tubule formation assay was performed in the presence of U266 conditioned media as described for the chemotaxis assay. Serum-starved (5×103) HUVEC were seeded on the […]™ surface in 200-μL EBM-2 medium supplemented with 20% V/V conditioned medium. Pictures were taken after 16-hour incubation in 5% CO2 at 37° C. The assay was run in triplicate and representative images are depicted in FIG. 5. As a positive control, EBM-2 medium supplemented with 20 ng/mL VEGF was used."}, "bFGF": {"test_system": "bFGF", "test": "ELISA of bFGF in U266 cell-conditioned medium", "assay_type": "cell-based, human", "details": "48-hour culture with 10 μg/mL Gal-3C, 5 nM Bor or both", "experimental": "(§1) ELISA of VEGF and bFGF Levels. The levels of VEGF and bFGF were measured by direct ELISA as follows. Flat-bottom 96-well polycarbonate plates were coated at 4° C. with 50 μL/well cell culture supernatants diluted 1:25 in carbonate coating buffer (0.1 M NaHCO3, […]) at 4° C. overnight. Standard curves were obtained with purified recombinant human VEGF and bFGF (both from R&D Systems) serially diluted in coating buffer (10-fold serial dilutions from 1,000 to 0 ng/mL). After removing diluted supernatants or standards, and blocking with PBS supplemented with 1% W/V BSA for 1 hour at room temperature, plates were incubated for 1 hour at room temperature with mouse anti-human VEGF or rabbit anti-human bFGF primary antibodies (2 μg/mL in PBS, 50 μL/well Abeam, Mass., USA). Then, plates were washed twice with PBS with 0.025% V/V Tween-20 (300 μL/well) and incubated at room temperature with anti-mouse or anti-rabbit HRP-labeled secondary antibodies (0.2 μg/mL in PBS, 50 μL/well Abeam, Mass., USA) for 1 hour. The plates were washed thrice with PBS containing 0.025% V/V Tween-20 (300 μL/well), the TMB colorimetric substrate (Thermo Fisher Scientific, Waltham, Mass., USA) was added, and after 5 minutes the absorbance was measured (0.1 s) at 450 nm on a Victor 2 multimodal microplate reader (PerkinElmer, Billerica, Mass., USA). All samples were run in triplicates. […]"}, "[3]": {"test_system": "NF-kB (serine 529 phosphorylated p65 subunit)", "test": "Quantification of NF-kappaB activation by flow cytometry in U266 cells", "assay_type": "cell-based, human", "details": "48 hours", "experimental": "Quantification of NF-kappaB Activation by Flow Cytometry. For measurement of NF-kB activation, 200×10^3 cells were fixed with 2% PFA in ice-cold PBS for 30 minutes. After removal of PFA, cells were permeabilized with 0.3% saponin in PBS on ice for 15 minutes, then washed and resuspended in 50 μL PBS supplemented with 1% BSA. PE-labeled anti-phosphorylated serine 529 p65 antibody (BD Biosciences, San Jose, Calif., USA) or isotype control (final dilution, 1:20) and allowed to incubate on ice in the dark for 30 minutes. Before flow-cytometric analysis cells were washed 3 times in 1-mL cold PBS with 1% BSA.\nFIG. 8A is a dot-plot of NF-kB activation in U266 cells. After 48 hours in the presence of indicated treatments, the levels of active NF-KB (serine 529 phosphorylated p65 subunit) were evaluated in U266 cells by flow cytometry."}, "VEGF": {"test_system": "VEGF", "test": "ELISA of VEGF in U266 cell-conditioned medium", "assay_type": "cell-based, human", "details": "48-hour culture with 10 μg/mL Gal-3C, 5 nM Bor or both", "experimental": "as §1"}, "AKT/IKK pathway": {"test_system": "AKT/IKK pathway", "test": "Western blot of proteins in the NF-κB AKT/IKK pathway", "assay_type": "cell-based", "details": "U266 and primary human MM cells; Gal-3C 10 μg/ml", "description": "EXAMPLE 4 indicates Gal-3C impairs NF-kB activation induced by Bonin U266 cells. Recently, it has been shown that the mechanism of action of Boris more complex than originally thought and can be differ depending on the cell type. […] This effect potentially reduces the therapeutic effect of Bonin MM, because NF-kB activation in plasma cells is associated with anti-apoptotic pathways (91). […] Comparison of NFkB expression by Western blot. […] Equal amounts of lysates of human primary MM and U266 cells and media were fractionated by SDS-PAGE and transferred to nitrocellulose membranes. Primary antibodies were visualized with HRP-coupled goat anti-rabbit or anti-mouse IgGs using an ATK/IKK kit (Cell Signaling Technology, Danvers, Mass.).\nUpon IKK-mediated phosphorylation, IKBα dissociates from the NF-kB complex (p50 and p65 proteins). Free NF-kB is then phosphorylated on serine 529 of the p65 subunit and enters the nucleus where it regulates gene transcription."}},
  "data": [
    {"smiles": "CC(C)C[C@H](NC(=O)[C@H](Cc1ccccc1)NC(=O)c1cnccn1)B(O)O", "note": "[Bor, bortezomib, reference compound]", "values": [
      {"measurement": "effect on HUVEC viability", "setting": "HUVEC [1]; Bor at the concentration used in HUVEC assays, combined with different concentrations of Gal-3C", "result": "did not display any effect"},
      {"measurement": "effect on HUVEC viability", "setting": "HUVEC [1]; at the concentration used in the chemotaxis and angiogenesis assays (Gal-3C 2 μg/ml, Bor 1 nM), 48 h", "result": "had an effect only at a concentration 5-fold higher"},
      {"measurement": "effect on HUVEC viability", "setting": "HUVEC [1]; at the highest concentrations, 48 h", "result": "dramatic inhibition"},
      {"measurement": "potential of U266 cells for induction of angiogenesis (tubule formation)", "setting": "HUVEC [2]", "result": "almost completely impaired"},
      {"measurement": "bFGF levels in U266 conditioned medium", "setting": "bFGF", "result": "significantly reduced"},
      {"measurement": "NF-kB activation (phosphorylated active form)", "setting": "[3]", "result": "activated NF-kB incrementally"},
      {"measurement": "VEGF levels in U266 conditioned medium", "setting": "VEGF", "result": "significantly reduced"},
      {"measurement": "P-p65, P-Akt, P-IKKβ and P-IKKα (activation of the AKT/IKK pathway)", "setting": "AKT/IKK pathway", "result": "increased"}
    ]}
  ]
}
